Key:
Type in all cases: functional, cell-based
[1] = Cytotoxicity against Homo sapiens (human) MDA231 cells after 48 hr by MTT assay; conditions: MDA-MB-231, 48 h
[2] = test system: A549; experiment: Cytotoxicity against Homo sapiens (human) A549 cells after 48 hr by MTT assay; conditions: A549, 48 h
[3] = test system: HeLa; experiment: Cytotoxicity against Homo sapiens (human) HeLa cells after 48 hr by MTT assay
[4] = test system: HepG2; experiment: Cytotoxicity against Homo sapiens (human) HepG2 cells after 48 hr by MTT assay; conditions: HepG2, 48 h

Row | SMILES | IC50 [1] [µM] | IC50 [2] [µM] | IC50 [3] [µM] | IC50 [4] [µM]
1 | C=CCC(c1ccc(Cl)cc1)c1c(O)ccc2ccccc12 (stereo unspecified) | 7.6 | 9.6 | 6.4 | 7.4
2 | C=CCC(c1ccc(C(C)C)cc1)c1c(O)ccc2ccccc12 (stereo unspecified) | 16.5 | 13.5 | 12.5 | 15
3 | COc1cccc2c1C(=O)c1c(O)c3c(c(O)c1C2=O)C[C@@](O)(C(=O)CO)C[C@@H]3O[C@H]1C[C@H](N)[C@H](O)[C@H](C)O1 [DOXORUBICIN] | < 1 | < 1 | < 1 | –
4 | C=CCC(c1ccc(F)cc1)c1c(O)ccc2ccccc12 (stereo unspecified) | < 1 | 1.6 | < 1 | 1.2
5 | C=CCC(c1ccccc1F)c1c(O)ccc2ccccc12 (stereo unspecified) | 6.6 | 7.8 | 6.8 | 9.7
6 | C=CCC(c1ccc(C)cc1)c1c(O)ccc2ccccc12 (stereo unspecified) | 6 | 6.8 | 6.2 | 5.6
7 | C=CCC(c1ccccc1)c1c(O)ccc2ccccc12 (stereo unspecified) | 33 | 59 | 76 | 53
8 | C=CCC(c1cccc(F)c1)c1c(O)ccc2ccccc12 (stereo unspecified) | 9.1 | 8.6 | 8.8 | 6.5
